Laboratory results published in US11014904B2, “1,2,4-triazine-3-amine derivative, preparation method therefor, and use thereof in medicine” (Jiangsu Hengrui Medicine Co., Ltd., priority 2017, dated 2021).

Experiments:
[1] = target: T1, adenosine A2a receptor (A2aR) (Homo sapiens, UniProt P29274); test: Inhibition of the adenosine A2a receptor cAMP signaling pathway in CHO-K1/A2aR cells (HTRF); format: cell-based; conditions: CHO-K1/A2aR cells, cAMP, NECA 20 nM; Table 1
T1 construct: expressed in transfected cells; host or cells: CHO-K1
T1 sequence (P29274 whole entry): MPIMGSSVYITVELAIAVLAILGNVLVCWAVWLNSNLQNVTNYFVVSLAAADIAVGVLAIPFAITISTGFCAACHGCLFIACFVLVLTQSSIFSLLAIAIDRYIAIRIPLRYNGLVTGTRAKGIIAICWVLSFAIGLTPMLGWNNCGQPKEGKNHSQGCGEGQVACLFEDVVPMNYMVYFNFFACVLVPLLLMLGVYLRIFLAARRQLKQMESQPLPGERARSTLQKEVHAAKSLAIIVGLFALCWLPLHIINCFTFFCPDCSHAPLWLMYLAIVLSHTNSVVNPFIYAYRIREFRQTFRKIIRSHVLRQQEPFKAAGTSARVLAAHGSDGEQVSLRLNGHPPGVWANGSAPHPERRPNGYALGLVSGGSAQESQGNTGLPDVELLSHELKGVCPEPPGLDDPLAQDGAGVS
Excerpt: (§1) Determination of the inhibition activity of the compounds of the present invention on the adenosine A2a receptor (A2aR) cAMP signaling pathway, the adenosine A2b receptor (A2bR) cAMP signaling pathway, the adenosine A1 receptor (A1R) cAMP signaling pathway and the adenosine A3 receptor (A3R) cAMP signaling pathway.
(§2) The inhibition activity of the compounds of the present invention on the adenosine A2a receptor (A2aR) cAMP signaling pathway, the adenosine A2b receptor cAMP signaling pathway, the adenosine A1 receptor cAMP signaling pathway and the adenosine A3 receptor cAMP signaling pathway was determined by the following method. The experimental method is briefly described as follows:
2.1 Adenosine A2a receptor
CHO-K1/A2aR cells were cultured in DMEM/F12 medium containing 10% fetal bovine serum and 800 μg/ml bleomycin. The cells were digested with the cell separation buffer during the experiment. The cells were resuspended in the balanced salt buffer containing 20 mM HEPES and 0.1% bovine serum albumin and counted, and the cell density was adjusted to 10^6 cells/ml. In the 384-well plate, each well was added with 5 μl of cell suspension, and 2.5 μl of test compound (4× concentration) formulated with the balanced salt buffer containing 20 mM HEPES, 0.1% bovine serum albumin, 54 μM rolipram and 2.7 U/ml adenosine deaminase, and the plate was incubated at room temperature for 30 minutes. Each well was then added with 2.5 μl of […] (4× concentration) formulated with the balanced salt buffer containing 20 mM HEPES, 0.1% bovine serum albumin, 54 μM rolipram and 2.7 U/ml adenosine deaminase, and the plate was incubated at room temperature for 30 minutes. The final concentrations of the compounds were: 10000, 2000, 400, 80, 16, 3.2, 0.64, 0.128, 0.0256, 0.00512, and 0.001024 nM. The final concentration of […] was 20 nM. Intracellular cAMP concentration was detected with the cAMP dynamic 2 kit. cAMP-d2 and Anti-cAMP-Eu-Cryptate were diluted respectively with the cAMP lysis buffer at a ratio of 1:4. Each well was added with 5 μl of diluted cAMP-d2, followed by addition of 5 μl of diluted Anti-cAMP-Eu-Cryptate, and the plate was incubated at room temperature in the dark for 1 hour. The HTRF signal values were read by the PHERAstar multi-function microplate reader.

[2] = target: T2, adenosine A2b receptor (A2bR) (Homo sapiens, UniProt P29275); test: Inhibition of the adenosine A2b receptor cAMP signaling pathway in CHO-K1/A2bR cells (HTRF); format: cell-based; conditions: ethyl carbazole 1 μM, Table 2
T2 construct: expressed in transfected cells; host or cells: CHO-K1
T2 sequence (P29275 1-332): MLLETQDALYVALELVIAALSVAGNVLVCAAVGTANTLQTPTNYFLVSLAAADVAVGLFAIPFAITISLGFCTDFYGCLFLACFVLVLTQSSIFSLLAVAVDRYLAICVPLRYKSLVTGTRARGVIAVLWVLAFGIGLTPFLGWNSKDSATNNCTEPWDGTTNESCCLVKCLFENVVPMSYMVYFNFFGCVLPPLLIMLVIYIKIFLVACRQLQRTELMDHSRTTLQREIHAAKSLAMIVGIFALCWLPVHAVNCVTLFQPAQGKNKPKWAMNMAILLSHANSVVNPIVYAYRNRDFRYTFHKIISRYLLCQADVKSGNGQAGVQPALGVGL
Excerpt: as §1, §2
2.2 Adenosine A2b Receptor
CHO-K1/A2bR cells were cultured in DMEM/F12 medium containing 10% fetal bovine serum and 1 mg/ml G418. The cells were digested with the cell separation buffer during the experiment. The cells were resuspended in the balanced salt buffer containing 20 mM HEPES and 0.1% bovine serum albumin and counted, and the cell density was adjusted to 10^6 cells/ml. In the 384-well plate, each well was added with 5 μl of cell suspension, and 2.5 μl of test compound (4× concentration) formulated with the balanced salt buffer containing 20 mM HEPES, 0.1% bovine serum albumin, 54 μM rolipram and 2.7 U/ml adenosine deaminase, and the plate was incubated at room temperature for 30 minutes. Each well was then added with 2.5 μl of […] (4× concentration) (Torcis, 1691/10) formulated with the balanced salt buffer containing 20 mM HEPES, 0.1% bovine serum albumin, 54 μM rolipram and 2.7 U/ml adenosine deaminase, and the plate was incubated at room temperature for 30 minutes. The final concentrations of the compounds were: 100000, 10000, 1000, 100, 10, 1, 0.1 and 0 nM. The final concentration of […] was 1 μM. Intracellular cAMP concentration was detected with the cAMP dynamic 2 kit. cAMP-d2 and Anti-cAMP-Eu-Cryptate were diluted respectively with the cAMP lysis buffer at a ratio of 1:4. Each well was added with 5 μl of diluted cAMP-d2, followed by addition of 5 μl of diluted Anti-cAMP-Eu-Cryptate, and the plate was incubated at room temperature in the dark for 1 hour. The HTRF signal values were read by the PHERAstar multi-function microplate reader.

Row | Compound | IC50 [1] | IC50 [2]
1 | Cc1ncnc2ccc(-c3nnc(N)nc3-c3ccc(Cl)cc3)cc12 [Example 46, 5-(4-Chlorophenyl)-6-(4-methylquinazolin-6-yl)-1,2,4-triazin-3-amine] | 1.6 nM | 18 nM
2 | COc1ccnc2ccc(-c3nnc(N)nc3-c3ccccc3)cc12 [Example 23, 6-(4-Methoxyquinolin-6-yl)-5-phenyl-1,2,4-triazin-3-amine] | 0.4 nM | 17 nM
3 | Nc1nnc(-c2cc(Cl)c3ncccc3c2)c(-c2ccccc2)n1 [Example 4, 6-(8-Chloroquinolin-6-yl)-5-phenyl-1,2,4-triazin-3-amine] | 0.7 nM | 4 nM
4 | Cc1ccc(-c2nc(N)nnc2-c2cc(C)c3ncccc3c2)o1 [Example 5, 5-(5-Methylfuran-2-yl)-6-(8-methylquinolin-6-yl)-1,2,4-triazin-3-amine] | 0.4 nM | 46 nM
5 | COc1cc(-c2nnc(N)nc2-c2ccccc2)cc2cccnc12 [Example 25, 6-(8-Methoxyquinolin-6-yl)-5-phenyl-1,2,4-triazin-3-amine] | 1.5 nM | 4 nM
6 | Cc1ccnc2ccc(-c3nnc(N)nc3-c3ccccc3)cc12 [Example 14, 6-(4-Methylquinolin-6-yl)-5-phenyl-1,2,4-triazin-3-amine] | 0.1 nM | 3 nM
